Patent US20080200724A1, “Process and Compound” (NPIL Pharmaceuticals (UK) Ltd, priority 2005, published 2008)

Experiments:
[1] = in propan-1-ol at 60° C.
Source text: In addition to methanol, other lower aliphatic alcohols were investigated. The solubility of BOC-protected 2R,3S—N-isobutyl-N-(2-hydroxy-3-amino-4-phenylbutyl)-p-nitrobenzene-sulfonylamide in propan-1-ol, propan-2-ol or butan-1-ol is too low to offer an economically viable process. […] The solubility of BOC-protected 2R,3S—N-isobutyl-N-(2-hydroxy-3-amino-4-phenylbutyl)-p-nitrobenzene-sulfonylamide in ethanol is better than that in C3 and C4-alcohols, but is still lower than the solubility in methanol. […] Similarly, acetone and 2-pentanone yield small acicular crystals.

[2] = solvent mixtures comprising methanol and one or more of toluene or ethyl acetate, typically
Procedure: The upper and lower concentration values are therefore dependent on the solubility characteristics of the material and the solvent mixture of choice. […] Therefore, for a crystallisation regime starting at 60° C. and ending at 0° C., a saturated or partially saturated solution in methanol and toluene, ethyl acetate admixtures, the concentration of BOC-protected 2R,3S—N-isobutyl-N-(2-hydroxy-3-amino-4-phenylbutyl)-p-nitrobenzene-sulfonylamide is in the range from 0.3 to 24% w/w.

SMILES: CC(C)CN(C[C@@H](O)[C@H](Cc1ccccc1)NC(=O)OC(C)(C)C)S(=O)(=O)c1ccc([N+](=O)[O-])cc1 [BOC-protected 2R,3S—N-isobutyl-N-(2-hydroxy-3-amino-4-phenylbutyl)-p-nitrobenzene-sulfonylamide]
- solubility [1]: less than 3 % w/w
- maximum solubility achievable ([2]; 60° C.): 24 % w/w
- lower solubility value ([2]; end-point temperature of 0° C.): 0.3 % w/w
